Source: US7294637B2 (Sepracor, Inc., priority 2000, dated 2007)
Like-named read-outs stand apart in the source and are kept apart here.

Columns and labels:
serotonin transporter [1] = target: T1, serotonin transporter (Homo sapiens, UniProt P31645); assay: 5-HT uptake: displacement of serotonin ligands in vitro (methods of Gu et al.); type: binding; settings: displacement of serotonin ligands in vitro; read-out: 5-HT Uptake, Uptake Profile (IC50)
[2] = target: T2, norepinephrine transporter (Homo sapiens, UniProt P23975); assay: Functional activity, norephinephrine uptake inhibition in MDCK cell lines; type: cell-based
T2 sequence (P23975 whole entry): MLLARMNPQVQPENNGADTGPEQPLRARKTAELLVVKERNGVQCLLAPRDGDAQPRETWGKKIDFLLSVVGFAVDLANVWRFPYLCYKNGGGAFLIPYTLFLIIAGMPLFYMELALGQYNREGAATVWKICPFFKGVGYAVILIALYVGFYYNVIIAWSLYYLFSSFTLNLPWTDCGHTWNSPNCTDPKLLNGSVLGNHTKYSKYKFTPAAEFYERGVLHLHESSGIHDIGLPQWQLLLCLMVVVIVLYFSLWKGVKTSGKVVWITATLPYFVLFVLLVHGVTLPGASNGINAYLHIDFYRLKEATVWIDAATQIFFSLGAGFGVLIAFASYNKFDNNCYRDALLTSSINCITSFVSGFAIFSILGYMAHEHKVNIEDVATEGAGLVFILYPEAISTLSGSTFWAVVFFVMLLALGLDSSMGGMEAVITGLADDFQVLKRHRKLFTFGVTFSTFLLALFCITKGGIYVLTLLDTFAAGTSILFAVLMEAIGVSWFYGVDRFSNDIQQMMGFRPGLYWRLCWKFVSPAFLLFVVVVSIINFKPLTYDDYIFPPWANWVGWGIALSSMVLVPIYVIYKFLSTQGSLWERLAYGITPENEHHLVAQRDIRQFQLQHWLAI

DAT = DAT (Homo sapiens, UniProt Q01959); assay: cell-based; parameters: expressed in transfected cells; settings: hDAT cell line; read-out: DA Uptake, Functional Assays (antagonism, EC50)
Chain of DAT (Q01959 whole entry): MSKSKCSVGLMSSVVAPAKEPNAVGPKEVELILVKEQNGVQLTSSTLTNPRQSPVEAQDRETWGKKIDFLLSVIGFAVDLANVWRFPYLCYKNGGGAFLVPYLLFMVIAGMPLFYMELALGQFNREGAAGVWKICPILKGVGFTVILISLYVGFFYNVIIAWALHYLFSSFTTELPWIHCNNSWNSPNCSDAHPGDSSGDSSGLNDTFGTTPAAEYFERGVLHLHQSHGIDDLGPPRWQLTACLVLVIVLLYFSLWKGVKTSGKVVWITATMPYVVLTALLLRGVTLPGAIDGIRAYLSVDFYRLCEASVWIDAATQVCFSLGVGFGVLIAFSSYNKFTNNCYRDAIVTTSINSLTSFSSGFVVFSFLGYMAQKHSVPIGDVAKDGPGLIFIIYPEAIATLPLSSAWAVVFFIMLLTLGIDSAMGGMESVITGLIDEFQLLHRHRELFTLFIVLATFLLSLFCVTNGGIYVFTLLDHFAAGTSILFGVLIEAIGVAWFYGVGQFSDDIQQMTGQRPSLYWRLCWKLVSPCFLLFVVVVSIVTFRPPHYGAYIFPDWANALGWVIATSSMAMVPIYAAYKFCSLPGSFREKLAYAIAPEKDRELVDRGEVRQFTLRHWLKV

rats [3] = type: in vivo, rat
Procedure: The animals were preconditioned in a pretest session, where the rats were individually forced to swim inside a vertical plexiglass cylinder containing water maintained at 19-20° C. […] Twenty four hours later, the compounds were administered intraperitoneal to the animals. One hour after administration of the test compound, animals were put back into the cylinder containing water. The total duration of immobility was measured during the last 4 minutes of a 6 minute test.
(§1) The results are expressed as the percentage of variation of the total duration of immobility calculated from the mean value of the vehicle-treated group (% variation=[(immobility duration of vehicle-immobility duration of test compound)/(immobility duration of vehicle)]×100%).

dopamine transporter = dopamine transporter (Homo sapiens, UniProt Q01959); assay: DA uptake: displacement of dopamine ligands in vitro (methods of Gu et al.); settings: DA Uptake, Uptake Profile (IC50, nM), displacement of dopamine ligands in vitro
Chain of dopamine transporter (Q01959 whole entry): as above

rat = assay: Acute toxicity assessment, maximum tolerated dose i.v., rat; type: in vivo; settings: rats
Procedure: (§2) An in vivo evaluation was carried out to determine the maximum tolerated dose of numerous test compounds in two animal species (mouse and rat). The compounds were administered i.v. and the animals were then observed for 72 h. Compounds 114, 115, 113, 110, 124, 125, 129, and 130 were solubilized in 5% dextrose (w/v)/polyethylene glycol 400 (4:1 v/v). Compounds 126, 127, 131, and 132 were solubilized in 10% hydroxypropyl-β-cyclodextrin (w/v).

serotonin transporter [4] = target: T1, serotonin transporter; assay: Functional activity, serotonin uptake inhibition in human HEK-293 cell lines; type: cell-based; parameters: expressed in transfected cells; host or cells: HEK-293; settings: human HEK-293 cell lines; read-out: 5-HT Uptake, Functional Assays (antagonism, EC50)
[5] = target: T2, norepinephrine transporter; assay: NE uptake: displacement of norephinephrine ligands in vitro (methods of Galli et al.); type: binding; settings: NE Uptake, Uptake Profile (IC50, nM)
rats [6] = assay: Behavioral despair assay in rats, 3 i.p. injections (Example 143); type: in vivo, rat; settings: for % variation of the total duration of immobility: 3 i.p. injections 24 h, 5 h and 1 h before test
Text: The objective of this study was to assess the antidepressant effects of test compounds 124, 125, 126, and 127 in the behavioral despair assay in rats according to the methods described by Porsolt R. D., Anton G., Blavet N., Jalfre M., Behavioural despair in rats: a new model sensitive to antidepressant treatment, Eur. J. Pharmacol., 1978, 47, 379-391. The animals were preconditioned in a pretest session, where the rats were individually forced to swim inside a vertical plexiglass cylinder containing water maintained at 19-20° C. After 15 minutes in the water, they were allowed to dry for 15 minutes in a heated enclosure. Twenty four hours later, they were replaced in the cylinder and the total duration of immobility was measured during a 5 minute test (test session). The test compounds and vehicle were administered as a series of 3 intraperitoneal injections 24 h, 5 h and 1 h before the 5 minute test on the second day.
as §1

mouse = assay: Acute toxicity assessment, maximum tolerated dose i.v., mouse; type: in vivo; settings: mice
Procedure: as §2

Sprague-Dawley rats [7] = assay: Spontaneous locomotor activity in rats (Example 141); type: in vivo, rat
Procedure: The effect of 124 and 126 on spontaneous locomotor activity in rats was determined according to the procedures outlined by Silverman et al. (Motor Activity. In “Animal behavior in the laboratory”, Chapman and Hall eds, London, p. 79-92, 1978) and Boissier et al. (Arch. Int. Pharmacodyn. 1965, 158, 212. )
Test items and test item vehicles were administered to male Sprague-Dawley rats (n=10) as a single i.p. dose (vehicle A=10% hydroxypropyl-β-cyclodextrin in water; vehicle B=4:1 5% aqueous dextrose:PEG 400). […] Locomotor activity was determined during 20 minute periods using video image analyzers. Images recorded with video cameras were digitalized and displacements of the center of gravity of the digital image spot were tracked and analyzed. When the speed of displacement of the center of gravity of the spot was below 4.26 cm/sec, the movement was considered as inactivity. When this speed was between 4.26 and 6.75 cm/sec, the movement was considered as a small movement. When this speed was above 6.75 cm/sec, the movement was considered as a large movement. The number of occurrences, distance and duration of fast and slow movements, number of occurrences and duration of periods of inactivity and number of rears were measured.

Sprague-Dawley rats [8] = assay: Spontaneous locomotor activity in rats, 1-24 hours (Example 223); type: in vivo, rat; settings: 10 mg/kg i.p.
Procedure: The effect of 124 and 126 on spontaneous locomotor activity in rats was determined according to the procedures outlined by Silverman et al. (Motor Activity. In “Animal behavior in the laboratory”, Chapman and Hall eds, London, p. 79-92, 1978) and Boissier et al. (Arch. Int. Pharmacodyn. 1965, 158, 212. ) Test items and test item vehicles were administered to male Sprague-Dawley rats (n=10) as a single i.p. dose. One, three, five, eight and twenty four hours following administration, rats were placed in a plastic box 30×30 cm in a room with low light intensity (maximum 50 lux). Locomotor activity was determined during 20 minute periods using video image analyzers. Images recorded with video cameras were digitalized and displacements of the center of gravity of the digital image spot were tracked and analyzed. When the speed of displacement of the center of gravity of the spot was below 4.26 cm/sec, the movement was considered as inactivity. When this speed was between 4.26 and 6.75 cm/sec, the movement was considered as a small movement. When this speed was above 6.75 cm/sec, the movement was considered as a large movement. The number of occurrences, distance and duration of fast and slow movements, number of occurrences and duration of periods of inactivity and number of rears were measured.

[9] = 2.5 mg/kg i.p., 1 h before test

T1 sequence (P31645 whole entry): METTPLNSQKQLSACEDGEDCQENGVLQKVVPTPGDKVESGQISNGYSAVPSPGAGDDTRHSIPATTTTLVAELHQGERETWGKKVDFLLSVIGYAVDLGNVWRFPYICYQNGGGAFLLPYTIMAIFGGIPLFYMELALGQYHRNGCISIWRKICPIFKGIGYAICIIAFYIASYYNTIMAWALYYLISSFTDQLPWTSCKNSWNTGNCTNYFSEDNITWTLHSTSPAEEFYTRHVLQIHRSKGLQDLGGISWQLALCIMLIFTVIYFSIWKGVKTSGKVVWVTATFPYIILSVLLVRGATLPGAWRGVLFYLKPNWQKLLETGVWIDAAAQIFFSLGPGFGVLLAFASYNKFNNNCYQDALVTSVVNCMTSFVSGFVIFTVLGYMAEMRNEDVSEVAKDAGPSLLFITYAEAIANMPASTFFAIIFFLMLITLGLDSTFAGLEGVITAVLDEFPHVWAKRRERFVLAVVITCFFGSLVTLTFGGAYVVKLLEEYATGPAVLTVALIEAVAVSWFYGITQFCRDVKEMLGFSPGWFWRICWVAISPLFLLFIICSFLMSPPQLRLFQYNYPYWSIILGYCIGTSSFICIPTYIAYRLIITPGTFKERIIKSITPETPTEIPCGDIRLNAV

## O[C@@H](CN1CCC[C@@H](COc2ccc(C(F)(F)F)cc2)C1)C1(c2ccc(Cl)cc2)CCC1 [compound 127, 1S-1-[1-(4-Chloro-phenyl)-cyclobutyl]-2-[(3R)-3-(4-trifluoromethyl-phenoxymethyl)-piperidin-1-yl]-ethanol]
Serotonin transporter [1]
  IC50: > 1000 nM
[2]
  EC50: < 1000 nM
DAT
  EC50: < 10 nM
Rats [3]; [9]
  % variation of the total duration of immobility: 25%
Rats [3]; 10 mg/kg i.p., 1 h before test
  % variation of the total duration of immobility: 67%
Dopamine transporter
  IC50: < 10 nM
rat; 30 mg/kg i.v.
  tolerability and mortality after 72 h: well tolerated
Serotonin transporter [4]
  EC50: > 1000 nM
[5]
  IC50: < 100 nM
Rats [6]; 1.0 mg/kg
  % variation of the total duration of immobility: 14%
Rats [6]; 2.0 mg/kg
  % variation of the total duration of immobility: 39%
Rats [6]; 2.5 mg/kg
  effectiveness (statistically significant variation >30%): effective
  % variation of the total duration of immobility: 39%
Rats [6]; 3.0 mg/kg
  % variation of the total duration of immobility: 64%
mouse; 30 mg/kg i.v.
  tolerability and mortality after 72 h: well tolerated

## CN1Cc2c(N)cccc2C(c2ccccc2)C1 (centres unmarked) [nomifensine, reference compound]
Rats [3]; rat, in vivo
  % variation of the total duration of immobility: 78%

## FC(F)(F)c1ccc(COC[C@@H]2CCCN(CC3(c4ccc(Cl)cc4)CCC3)C2)cc1 [compound 130, R-1-[1-(4-Chloro-phenyl)-cyclobutylmethyl]-3-(4-trifluoromethyl-benzyloxymethyl)-piperidine]
Serotonin transporter [1]
  IC50: < 1000 nM
[2]
  EC50: < 100 nM
DAT
  EC50: < 10 nM
Dopamine transporter
  IC50: < 100 nM
rat; 30 mg/kg i.v.
  tolerability and mortality after 72 h: well tolerated
Serotonin transporter [4]
  EC50: > 1000 nM
[5]
  IC50: < 1000 nM
mouse; 30 mg/kg i.v.
  tolerability and mortality after 72 h: well tolerated

## O[C@@H](CN1CCC[C@H](COc2ccc(C(F)(F)F)cc2)C1)C1(c2ccc(Cl)cc2)CCC1 [compound 125, 1R-1-[1-(4-Chloro-phenyl)-cyclobutyl]-2-[(3S)-3-(4-trifluoromethyl-phenoxymethyl)-piperidin-1-yl]-ethanol]
Serotonin transporter [1]
  IC50: < 1000 nM
[2]
  EC50: < 1000 nM
DAT
  EC50: < 10 nM
Rats [3]; 10 mg/kg i.p., 1 h before test
  % variation of the total duration of immobility: 55%
Dopamine transporter
  IC50: < 10 nM
rat; 30 mg/kg i.v.
  tolerability and mortality after 72 h: well tolerated
Serotonin transporter [4]
  EC50: < 1000 nM
[5]
  IC50: < 100 nM
Rats [6]; 2.5 mg/kg
  % variation of the total duration of immobility: 12%
mouse; 30 mg/kg i.v.
  tolerability and mortality after 72 h: well tolerated

## O[C@H](CN1CCC[C@@H](COc2ccc(C(F)(F)F)cc2)C1)C1(c2ccc(Cl)cc2)CCC1 [compound 126, 1R-1-[1-(4-Chloro-phenyl)-cyclobutyl]-2-[(3R)-3-(4-trifluoromethyl-phenoxymethyl)-piperidin-1-yl]-ethanol]
Sprague-Dawley rats [7]; 5 mg/kg i.p.
  Small Movement Occurrences: 651.4 ± 141.2
Sprague-Dawley rats [7]; 5 mg/kg i.p., 20 min
  Large Movement Occurrences: 287.0 ± 34.4 ^
  Small Movement Occurrences: 711.6 ± 65.7 ^
Sprague-Dawley rats [7]; 5 mg/kg i.p., 60 min
  Large Movement Occurrences: 204.4 ± 36.3 ^
  Small Movement Occurrences: 563.5 ± 85.0 ^
Sprague-Dawley rats [7]; 5 mg/kg i.p., 120 min
  Large Movement Occurrences: 293.8 ± 68.9 ^
  Small Movement Occurrences: 717.4 ± 138.6
Sprague-Dawley rats [7]; 5 mg/kg i.p., 180 min
  Large Movement Occurrences: 270.5 ± 73.8 ^
Sprague-Dawley rats [7]; 10 mg/kg i.p., 20 min
  Large Movement Occurrences: 364.7 ± 52.7 ^
  Small Movement Occurrences: 904.3 ± 110.8
Sprague-Dawley rats [7]; 10 mg/kg i.p., 60 min
  Large Movement Occurrences: 644.5 ± 127.3
  Small Movement Occurrences: 1218.7 ± 178.9 ^
Sprague-Dawley rats [7]; 10 mg/kg i.p., 120 min
  Large Movement Occurrences: 752.7 ± 129.4
  Small Movement Occurrences: 1358.1 ± 137.1 ^
Sprague-Dawley rats [7]; dosed at 5 and 10 mg/kg i.p.
  locomotor activity compared to control animals: significant increase
Serotonin transporter [1]
  IC50: < 1000 nM
[2]
  EC50: < 1000 nM
DAT
  EC50: < 10 nM
Rats [3]; 2.5 mg/kg
  effectiveness (statistically significant variation >30%): effective
Rats [3]; [9]
  % variation of the total duration of immobility: 45%
Rats [3]; 10 mg/kg i.p., 1 h before test
  % variation of the total duration of immobility: 99%
Dopamine transporter
  IC50: < 10 nM
rat; 10 mg/kg i.v.
  tolerability and mortality after 72 h: well tolerated
Serotonin transporter [4]
  EC50: < 1000 nM
[5]
  IC50: < 100 nM
Rats [6]; 0.25 mg/kg
  % variation of the total duration of immobility: 9%
Rats [6]; 0.75 mg/kg
  % variation of the total duration of immobility: 47%
Rats [6]; 1.0 mg/kg
  effectiveness (statistically significant variation >30%): effective
  % variation of the total duration of immobility: 58%
Rats [6]; 2.5 mg/kg
  effectiveness (statistically significant variation >30%): effective
  % variation of the total duration of immobility: 76%
mouse; 10 mg/kg i.v.
  tolerability and mortality after 72 h: well tolerated
Sprague-Dawley rats [8]; 1 hour
  Large Movement Occurrences: 774 ± 110 ^
  Small Movement Occurrences: 1357 ± 125^
Sprague-Dawley rats [8]; 3 hours
  Large Movement Occurrences: 956 ± 93^
  Small Movement Occurrences: 1610 ± 73 ^
Sprague-Dawley rats [8]; 5 hours
  Large Movement Occurrences: 866 ± 117 ^
  Small Movement Occurrences: 1575 ± 90 ^
Sprague-Dawley rats [8]; 8 hours
  Large Movement Occurrences: 746 ± 95^
  Small Movement Occurrences: 1489 ± 111^
Sprague-Dawley rats [8]; 24 hours
  Large Movement Occurrences: 1012 ± 81 ^
  Small Movement Occurrences: 1544 ± 75 ^
Sprague-Dawley rats [8]; at all times tested (1, 3, 5, 8, 24 hours)
  locomotor activity compared to control animals: significant increase
